According to patent US20090285888A1, “DERIVATIVES OF DIHYDROXYPHENYLALANINE” (priority 2006, published 2009):

Assays:
[1] = test system: nucleus accumbens of a freely moving rat; test: In vivo microdialysis of dopamine release in the nucleus accumbens of the freely moving rat; details: for Dose dependence of dopamine release in nucleus accumbens (in words): 25 and 50 mg/kg L-DOPA or equimolar doses, FIGS. 1-4; for Time-course of dopamine concentration in nucleus accumbens microdialysate (in words): ip, 30 min after benserazide, L-DOPA: higher dose (FIG. 1), compound 1: FIGS. 3 and 4
Description: The arrow indicates the moment of injection (ip: intraperitoneal) of L-DOPA (25 mg/kg body weight) 30 minutes after the administration of benserazide (10 mg/kg body weight, ip).
The arrow indicates the moment of injection (ip: intraperitoneal) of L-DOPA (50 mg/kg body weight) 30 minutes after the administration of benserazide (10 mg/kg body weight, ip, in 0.9% NaCl).
The arrow indicates the moment of injection (ip: intraperitoneal) of diacetyl-DOPA-ethylene glycol α-lipoic acid (equimolar dose to 25 mg/kg body weight L-DOPA) 30 minutes after the administration of benserazide (10 mg/kg body weight, ip in 0.9% NaCl).
The arrow indicates the moment of injection (ip: intraperitoneal) of diacetyl-DOPA-ethylene glycol α-lipoic acid (equimolar dose to 50 mg/kg body weight L-DOPA) 30 minutes after the administration of benserazide (10 mg/kg body weight, ip).
Furthermore, by the method of in vivo micro dialysis of the conscious and freely moving rat, experiments were carried out to test whether the production and release of dopamine in the nucleus accumbens, a part of the brain with dense innervation of dopamine-containing nerve cells, is increased upon administration of L-DOPA or compound 1. The advantage of said method consists in the fact that the time-course of the release of the messenger dopamine from the active nerve cells can be observed in the conscious and freely moving rat. […] Said strong increase and the high concentrations are not desired since several degradation products of dopamine and the oxygen radicals formed during the degradation of dopamine have damaging effects on nerve cells.

[2] = test system: brain (striatum) of the rat; test: Concentration of dopamine, its metabolites, 5-HT and 5-HIAA in the striatum of benserazide-pretreated rats; assay type: in vivo; details: for 3-MT concentration in striatum (MV) / 5-HIAA concentration in striatum (MV) / 5-HT concentration in striatum (MV) / Dopac concentration in striatum (MV) / Dopamine concentration in striatum (MV) / HVA concentration in striatum (MV): 30 min after benserazide, tissue 90 min later
Description: (§1) The rats were pretreated with benserazide, an inhibitor of the aromatic amino acid decarboxylase, in order to reduce the degradation of the test compounds in the blood and to thus provide sufficient concentration of dopamine and α-lipoic acid in the brain. After 30 minutes, L-DOPA (standard therapy for Parkinson's disease) or compound 1, compound 2, compound 3 in doses equivalent to L-DOPA were injected into the peritoneum (intraperitoneal, ip). After a further 90 minutes, blood and brain tissue (striatum) were extracted. A lower dose (25 mg/kg body weight) and a higher dose (50 mg/kg body weight) of L-DOPA were selected.

[3] = test system: blood plasma of rats; test: Concentration of dopamine, its metabolites, 5-HT and 5-HIAA in the blood plasma of benserazide-pretreated rats; assay type: in vivo, rat; details: for 3-MT concentration in blood plasma (MV) / 5-HIAA concentration in blood plasma (MV) / 5-HT concentration in blood plasma (MV) / Dopac concentration in blood plasma (MV) / Dopamine concentration in blood plasma (MV) / HVA concentration in blood plasma (MV): 30 min after benserazide, blood 90 min later; for Formation of dopamine in the blood plasma (in words): low and higher doses
Description: as §1

[4] = 25 mg/kg L-DOPA or L-DOPA eq. ip
[5] = 50 mg/kg L-DOPA or L-DOPA eq. ip
[6] = higher doses (50 mg/kg L-DOPA eq.)
[7] = low doses (25 mg/kg L-DOPA eq.)

Row | Compound | 3-MT concentration in striatum (MV) [2, 4] [pg per mg striatum] | 5-HIAA concentration in striatum (MV) [2, 4] [pg per mg striatum] | 5-HT concentration in striatum (MV) [2, 4] [pg per mg striatum] | Dopac concentration in striatum (MV) [2, 4] [pg per mg striatum] | Dopamine concentration in striatum (MV) [2, 4] [pg per mg striatum] | HVA concentration in striatum (MV) [2, 4] [pg per mg striatum] | 3-MT concentration in striatum (MV) [2, 5] [pg per mg striatum] | 5-HIAA concentration in striatum (MV) [2, 5] [pg per mg striatum] | 5-HT concentration in striatum (MV) [2, 5] [pg per mg striatum] | Dopac concentration in striatum (MV) [2, 5] [pg per mg striatum] | Dopamine concentration in striatum (MV) [2, 5] [pg per mg striatum] | HVA concentration in striatum (MV) [2, 5] [pg per mg striatum] | Effect on the concentrations of dopamine in striatum (in words) [2, 6] | Effect on the metabolites DOPAC and HVA in striatum (in words) [2, 6] | Effect on the concentrations of dopamine in striatum (in words) [2, 7] | Effect on the metabolites DOPAC and HVA in striatum (in words) [2, 7] | 3-MT concentration in blood plasma (MV) [3, 4] [pg per ml plasma] | 5-HIAA concentration in blood plasma (MV) [3, 4] [pg per ml plasma] | 5-HT concentration in blood plasma (MV) [3, 4] [pg per ml plasma] | Dopac concentration in blood plasma (MV) [3, 4] [pg per ml plasma] | also measured
1 | NC(Cc1ccc(O)c(O)c1)C(=O)O [L-DOPA, 2-amino-3-(3,4-dihydroxyphenyl)-propionic acid, reference compound] | 312 | 711 | 365 | 3017 | 10108 | 1752 | 259 | 593 | 366 | 9159 | 11844 | 4550 | led to an increase | increased | do not lead to an increase | increased | 11897 | 18687 | 3089 | 20833 | Dose dependence of dopamine release in nucleus accumbens (in words) [1]: released in a dose-dependent manner; Time-course of dopamine concentration in nucleus accumbens microdialysate (in words) [1]: strongly increases; Dopamine concentration in blood plasma (MV) [3, 4]: 20437 pg per ml plasma; HVA concentration in blood plasma (MV) [3, 4]: 9592 pg per ml plasma; 3-MT concentration in blood plasma (MV) [3, 5]: 14711 pg per ml plasma; 5-HIAA concentration in blood plasma (MV) [3, 5]: 11426 pg per ml plasma; 5-HT concentration in blood plasma (MV) [3, 5]: 15108 pg per ml plasma; Dopac concentration in blood plasma (MV) [3, 5]: 38697 pg per ml plasma; Dopamine concentration in blood plasma (MV) [3, 5]: 31519 pg per ml plasma; HVA concentration in blood plasma (MV) [3, 5]: 69329 pg per ml plasma; Formation of dopamine in the blood plasma (in words) [3]: dopamine is formed
2 | CC(=O)Oc1ccc(C[C@H](N)C(=O)OCCOC(=O)CCCCC2CCSS2)cc1OC(C)=O (stereo partly drawn) [compound 1, O,O′-diacetyl-L-DOPA-ethylene glycol lipoic acid ester] | 308 | 706 | 355 | 4532 | 11244 | 2567 | 194 | 764 | 411 | 9549 | 11695 | 4314 |  | increased | do not lead to an increase | increased | 8563 | 13852 | 8894 | 57257 | Dose dependence of dopamine release in nucleus accumbens (in words) [1]: released in a dose-dependent manner; Time-course of dopamine concentration in nucleus accumbens microdialysate (in words) [1]: two-peak-maximum and a less steep increase as well as a longer lasting effect; Dopamine concentration in blood plasma (MV) [3, 4]: 29782 pg per ml plasma; HVA concentration in blood plasma (MV) [3, 4]: 16836 pg per ml plasma; 3-MT concentration in blood plasma (MV) [3, 5]: 6288 pg per ml plasma; 5-HIAA concentration in blood plasma (MV) [3, 5]: 15367 pg per ml plasma; 5-HT concentration in blood plasma (MV) [3, 5]: 12094 pg per ml plasma; Dopac concentration in blood plasma (MV) [3, 5]: 58266 pg per ml plasma; Dopamine concentration in blood plasma (MV) [3, 5]: 22129 pg per ml plasma; HVA concentration in blood plasma (MV) [3, 5]: 71658 pg per ml plasma; Formation of dopamine in the blood plasma (in words) [3]: Dopamine is also formed
3 | CC(=O)Oc1ccc(CC(NC(=O)CCCCC2CCSS2)C(=O)O)cc1OC(C)=O [compound 2, O,O′-diacetyl-L-DOPA-(R,S)-lipoic acid amide] | 267 | 780 | 438 | 6127 | 10512 | 1577 | 176 | 782 | 448 | 5697 | 11485 | 1742 | led to an increase | increased | do not lead to an increase | increased | 11480 | 8374 | 7966 | 52963 | Effect on the concentration of 5-HT in striatum (in words) ([2]; rat, in vivo): increased the concentration of 5-HT; Dopamine concentration in blood plasma (MV) [3, 4]: 23006 pg per ml plasma; HVA concentration in blood plasma (MV) [3, 4]: 44304 pg per ml plasma; 3-MT concentration in blood plasma (MV) [3, 5]: 6121 pg per ml plasma; 5-HIAA concentration in blood plasma (MV) [3, 5]: 12656 pg per ml plasma; 5-HT concentration in blood plasma (MV) [3, 5]: 7494 pg per ml plasma; Dopac concentration in blood plasma (MV) [3, 5]: 57729 pg per ml plasma; Dopamine concentration in blood plasma (MV) [3, 5]: 21919 pg per ml plasma; HVA concentration in blood plasma (MV) [3, 5]: 42184 pg per ml plasma; Formation of dopamine in the blood plasma (in words) [3]: Dopamine is also formed
4 | O=C(CCCCC1CCSS1)NC(Cc1ccc(O)c(O)c1)C(=O)O [compound 3, L-DOPA-(D,L)-lipoic acid amide] | 292 | 620 | 340 | 1508 | 10539 | 1042 | 237 | 490 | 278 | 1788 | 11488 | 1244 | led to an increase | increased | do not lead to an increase | only HVA |  |  |  |  | 
